In paper PMC13544220, “Glycemic and bodyweight effects of GIPR coding variation reflect differences in surface expression and intrinsic functional impairment” (Science Advances, 2026):

Legend:
Format in all cases: cell-based, human
[1] = tested on: wild-type and variant SNAP-GIPR; assay: Single-concentration GIP cAMP response by HTRF in AD293 cells; conditions: for HTRF cAMP: 100 nM GIP, AD293, 30 min, n=8;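 on AD293 100 nM HTRF: ratio to experiment-wide average response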;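 on AD293 100 pM HTRF: ratio to experiment-wide average response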
Procedure: All variants were tested in parallel on each occasion to control for transfection efficiency differences between experiments.

[2] = tested on: wild-type and variant SNAP-GIPR; assay: Constitutive and agonist-mediated internalization, reversible SNAP-tag labelling, AD293 cells; parameters: key to Internalisation, Vehicle / Internalisation, +GIP / Internalisation, GIP-only: % internalization: residual fluorescence after Mesna vs pre-Mesna; Surface expression: unit not given here
How it was run: (§1)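 Percentage internalization calculated as specific SNAP fluorescence remaining after 10 min Mesna exposure, relative to pre-Mesna signal, imaged in TNE buffer (pH 8.6).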

[3] = tested on: wild-type and variant SNAP-GIPR; assay: cADDis cAMP imaging in AD293 cells, ensemble, expression-matched and per decile;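 on AD293 100 nM cADDis: Ensemble cells as % of IBMX/FSK response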;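 on AD293 100 pM cADDis: Ensemble cells as % of IBMX/FSK response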
How it was run: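 Surface GIPR and cAMP are measured in individual AD293 cells coexpressing SNAP-tagged receptor and the green cADDis biosensor, imaged live at 37°C. Responses are reported ensemble, expression-matched against wild-type deciles with extremes trimmed, or within each variant's own surface deciles.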

[4] = tested on: wild-type and variant SNAP-GIPR; assay: Constitutive and agonist-mediated internalization, reversible SNAP-tag labelling, INS-1 cells; parameters: key to Internalisation, GIP-only / Internalisation, Vehicle / Internalisation, +GIP: % internalization: residual fluorescence after Mesna vs pre-Mesna; conditions: Mean
How it was run: as §1

[5] = tested on: wild-type and variant SNAP-GIPR in Gipr-/- mouse islets; assay: Surface SNAP-GIPR expression in pancreatic islets; conditions: Fig 6B
Procedure: Islets were purified from Gipr^−/− mice as described in the “Islet isolation and culture” section. Islets were transduced with adenoviral wild-type or variant SNAP-tagged GIPR constructs (VectorBuilder) per the manufacturer’s instructions. All variants were tested in parallel on each occasion to control for transduction efficiency. Twenty-four hours posttransduction, whole, intact islets were labeled with SNAP-Surface Alexa Fluor 647 for 15 min at 37°C. Following labeling, the islets were placed in a drop of PBS in the center of a glass-bottom MatTek dish and imaged on a Zeiss LSM 780 inverted confocal microscope fitted with a 63X/1.4 NA oil immersion objective. Receptor surface levels were quantified in Fiji using a macro using full width at half maximum (FWHM) designed by the Facility for Imaging and Light Microscopy (FILM) at Imperial College London and expressed relative to wild-type GIPR. In additional experiments, islets transduced as above and labeled with SNAP-Surface-647 were fixed in 4% paraformaldehyde, permeabilized in 0.5% (v/v) Triton X-100 in PBS (15 min), washed once with PBS and incubated in blocking buffer (PBS and 1% BSA) for 1 hour, and incubated overnight at 4°C in primary antibodies against insulin (1:50; Dako IR002, Agilent Technologies) and glucagon (1:500; G2654, Sigma-Aldrich) in blocking buffer.

CC[C@H](C)[C@H](NC(=O)[C@H](CO)NC(=O)[C@H](Cc1ccc(O)cc1)NC(=O)[C@H](CC(=O)O)NC(=O)[C@H](CO)NC(=O)[C@@H](NC(=O)[C@H](Cc1ccccc1)NC(=O)[C@@H](NC(=O)CNC(=O)[C@H](CCC(=O)O)NC(=O)[C@H](C)NC(=O)[C@@H](N)Cc1ccc(O)cc1)[C@@H](C)O)[C@@H](C)CC)C(=O)N[C@@H](C)C(=O)N[C@@H](CCSC)C(=O)N[C@@H](CC(=O)O)C(=O)N[C@@H](CCCCN)C(=O)N[C@H](C(=O)N[C@@H](Cc1c[nH]cn1)C(=O)N[C@@H](CCC(N)=O)C(=O)N[C@@H](CCC(N)=O)C(=O)N[C@@H](CC(=O)O)C(=O)N[C@@H](Cc1ccccc1)C(=O)N[C@H](C(=O)N[C@@H](CC(N)=O)C(=O)N[C@@H](Cc1c[nH]c2ccccc12)C(=O)N[C@@H](CC(C)C)C(=O)N[C@@H](CC(C)C)C(=O)N[C@@H](C)C(=O)N[C@@H](CCC(N)=O)C(=O)N[C@@H](CCCCN)C(=O)NCC(=O)N[C@@H](CCCCN)C(=O)N[C@@H](CCCCN)C(=O)N[C@@H](CC(N)=O)C(=O)N[C@@H](CC(=O)O)C(=O)N[C@@H](Cc1c[nH]c2ccccc12)C(=O)N[C@@H](CCCCN)C(=O)N[C@@H](Cc1c[nH]cn1)C(=O)N[C@@H](CC(N)=O)C(=O)N[C@H](C(=O)N[C@H](C(=O)N[C@@H](CCC(N)=O)C(=O)O)[C@@H](C)O)[C@@H](C)CC)C(C)C)[C@@H](C)CC [GIP, glucose-dependent insulinotropic polypeptide, reference compound]
HTRF cAMP ([1]; A207V, mean): 1.3964 vs. experimental average
HTRF cAMP ([1]; A268V, mean): 1.283 vs. experimental average
cAMP response ([1]; AD293, 100 pM GIP, E252D and A268V): GoF cAMP responses
cAMP response ([1]; AD293, 100 pM GIP, E354Q): increased response
cAMP response ([1]; AD293, 100 pM GIP, R136W and R131S): reduced cAMP response
cAMP response ([1]; AD293, 100 pM and 100 nM GIP, 10 variants with lowest surface expression): reduced cAMP responses
cAMP response at higher concentration ([1]; AD293, 100 nM GIP, S64A, R217L, L262H): at least a partially restored response
HTRF cAMP ([1]; D66G, mean): 0.328 vs. experimental average
HTRF cAMP ([1]; E252D, mean): 1.787 vs. experimental average
HTRF cAMP ([1]; E288G, mean): 0.3648 vs. experimental average
HTRF cAMP ([1]; E354Q, mean): 1.4229 vs. experimental average
HTRF cAMP ([1]; E463Q, mean): 1.311 vs. experimental average
HTRF cAMP ([1]; G438S, mean): 1.655 vs. experimental average
HTRF cAMP ([1]; I378M, mean): 1.479 vs. experimental average
HTRF cAMP ([1]; I403V, mean): 1.595 vs. experimental average
HTRF cAMP ([1]; L100F, mean): 1.598 vs. experimental average
HTRF cAMP ([1]; L262H, mean): 1.14 vs. experimental average
HTRF cAMP ([1]; L262V, mean): 1.331 vs. experimental average
HTRF cAMP ([1]; L304R, mean): 0.7364 vs. experimental average
HTRF cAMP ([1]; R101H, mean): 0.2474 vs. experimental average
HTRF cAMP ([1]; R131S, mean): 1.306 vs. experimental average
HTRF cAMP ([1]; R136W, mean): 1.324 vs. experimental average
HTRF cAMP ([1]; R183Q, mean): 0.2411 vs. experimental average
HTRF cAMP ([1]; R190Q, mean): 0.2205 vs. experimental average
HTRF cAMP ([1]; R196G, mean): 1.594 vs. experimental average
HTRF cAMP ([1]; R217L, mean): 1.142 vs. experimental average
HTRF cAMP ([1]; R300W, mean): 1.632 vs. experimental average
HTRF cAMP ([1]; R336P, mean): 1.143 vs. experimental average
HTRF cAMP ([1]; R341P, mean): 0.1915 vs. experimental average
HTRF cAMP ([1]; R404H, mean): 1.255 vs. experimental average
HTRF cAMP ([1]; S64A, mean): 1.061 vs. experimental average
HTRF cAMP ([1]; S415G, mean): 1.323 vs. experimental average
HTRF cAMP ([1]; S415I, mean): 1.113 vs. experimental average
HTRF cAMP ([1]; S447T, mean): 1.418 vs. experimental average
HTRF cAMP ([1]; T116R, mean): 1.485 vs. experimental average
HTRF cAMP ([1]; WT, mean): 1.495 vs. experimental average
GIP-induced increase in internalization ([2]; 100 nM GIP, R190Q, R101H, E288G, D66G, R183Q, either/both AD293 and INS-1): statistically significant reductions in internalization
internalization ([2]; 100 nM GIP, most variants, AD293 and INS-1): wild type–like internalization
cADDis cAMP response at low own expression ([3]; AD293, 100 pM GIP, E354Q (lesser extent A207V, E252D, A268V)): increased responses relative to the wild type
cADDis cAMP response, expression-matched ([3]; AD293, 100 pM GIP, R101H, S64A, R217L, L262H, L304R): at least partly restored to wild-type levels
cADDis cAMP response at highest own expression ([3]; AD293, 100 pM GIP, R136W, R131S, T116R, S64A): wild type–like responses
cADDis cAMP response, expression-matched ([3]; AD293, 100 pM GIP, all variants with reduced ensemble response): still showed LoF
cADDis cAMP response, expression-matched ([3]; AD293, 100 pM and 100 nM GIP, R183Q, R190Q, D66G, E288G): no rescue of function

B1: WT (protein, UniProt P48546 22-466, looked up)
Gastric inhibitory …: RAETGSKGQTAGELYQRWERYRRECQETLAAAEPPSGLACNGSFDMYVCWDYAAPNATARASCPWYLPWHHHVAAGFVLRQCGSDGQWGLWRDHTQCENPEKNEAFLDQRLILERLQVMYTVGYSLSLATLLLALLILSLFRRLHCTRNYIHINLFTSFMLRAAAILSRDRLLPRPGPYLGDQALALWNQALAACRTAQIVTQYCVGANYTWLLVEGVYLHSLLVLVGGSEEGHFRYYLLLGWGAPALFVIPWVIVRYLYENTQCWERNEVKAIWWIIRTPILMTILINFLIFIRILGILLSKLRTRQMRCRDYRLRLARSTLTLVPLLGVHEVVFAPVTEEQARGALRFAKLGFEIFLSSFQGFLVSVLYCFINKEVQSEIRRGWHHCRLRRSLGEEQRQLPERAFRALPSGSGPGEVPTSRGLSSGTLPGPGNEASRELESYC
+GIP internalisation (100 nM) ([4]; Fig 4G, GIP 100 nM): 0.7446
GIP-specific internalisation (100 nM) ([4]; Fig 4G, GIP 100 nM): 0.2047
Constitutive internalisation (100 nM) ([4]; Fig 4G): 0.5399
Internalisation, +GIP ([4]; Fig S4C, INS-1): 51.1244
Internalisation, GIP-only ([4]; Fig S4C, INS-1): 14.2697
Internalisation, Vehicle ([4]; Fig S4C, INS-1): 36.8547
AD293 100 pM HTRF ([1]; Fig S3F, AD293, 100 pM, HTRF, mean): 1.584
AD293 100 nM HTRF ([1]; Fig S3F, AD293, 100 nM, HTRF, mean): 1.495
+GIP internalisation (100 nM) ([2]; Fig 4E, GIP 100 nM, Mean): 0.9729
GIP-specific internalisation (100 nM) ([2]; Fig 4E, GIP 100 nM, Mean): 0.2717
Constitutive internalisation (100 nM) ([2]; Fig 4E, Mean): 0.7012
Surface expression ([2]; Fig 4E, Mean): 1.75
Internalisation, +GIP ([2]; Fig S4C, AD293, Mean): 55.4256
Internalisation, GIP-only ([2]; Fig S4C, AD293, Mean): 15.538
Internalisation, Vehicle ([2]; Fig S4C, AD293, Mean): 39.8877
AD293 100 pM cADDis ([3]; Fig S3F, AD293, 100 pM, cADDis, mean): 34.2953
AD293 100 nM cADDis ([3]; Fig S3F, AD293, 100 nM, cADDis, mean): 38.14
Surface SNAP-GIPR expression in pancreatic islets ([5]; replicate 1): 1.958
Surface SNAP-GIPR expression in pancreatic islets ([5]; replicate 2): 2.33
Surface SNAP-GIPR expression in pancreatic islets ([5]; replicate 3): 2.173
Surface SNAP-GIPR expression in pancreatic islets ([5]; replicate 4): 3.278
Surface SNAP-GIPR expression in pancreatic islets ([5]; replicate 5): 3.132
